The source of these data is patent US8475772B2, “Peptide-based oral care surface reagents for personal care” (E I du Pont de Nemours and Company, priority 2003, dated 2013).

Experiment [1] in a line: Interfiber friction test, low load, against another single hair fiber. Set-up: species or system human. The note with it: mean of fibers; normal force 8.5 mg. As for the experimental part:
(§1) IL) in distilled water. The aqueous solution was mixed at 7000 rpm for 4 min using a Silverson […] High Shear Laboratory Mixer (Silverson Machines, Inc., East Longmeadow, Mass.) with a general purpose disintegrating head and a 0.95 cm mini-micro tubular frame. A 0.5% solution of Dow Corning® 929 Cationic Emulsion (Dow Corning Corp., Midland, Mich.), a commercial conditioning agent, in distilled water was prepared using identical mixing conditions. European dark brown hair swatches (International Hair Importers and Products) were cleaned before testing by immersing in isopropanol for 30 min, then washing 10 times with distilled water. Single hair fibers from these swatches were sent to Textile Research Institute (TRI), Princeton, N.J., for friction testing. […] Frictional force measurements of treated hair fibers were measured by the Interfiber friction test using a single-fiber friction apparatus, as described by […] et al. (J. Appl. Polymer Sci., 85:394-414 (2002)). Hair fibers were evaluated at high normal forces (high load) (0.74 g) against a chromed steel wire, crosshead speed of 1 mm/min, using an Instron Tensile Testing machine. Low normal forces (low load) (8.5 mg) were measured against another single hair fiber using the TRI/ScanTM Surface Force Analyzer (Textile Research Institute). […]

A short description of experiment [2]: Fiber friction test, high load, against chromed steel wire. Set-up: species or system human. The note with it: normal force 0.74 g. As for the experimental part: as §1

Values joined by “and” are separate entries in the source; they are usually repeats but may differ in a detail not shown here. Equal entries are not always repeated. Where no end group is shown, it is not given here.

Turning to “Conditioner: SEQ ID NO:46 covalently linked to behenyl alcohol; tested at 0.25% with 1.5% lecithin in water (RTNAADHPAAVT; also: covalently linked to behenyl alcohol, site not given here)”, the “Friction Force Ff, Low Load, Mean” value in experiment [1] is listed as 0.304 mg. For the same substance, the “Friction Force Ff, High Load, Mean” value in experiment [2] (mean of fibers) amounted to 0.055 g. In addition, in experiment [2] (single fibers 1-4), the “Friction Force Ff, High Load” value is 0.041 g and 0.057 g and 0.070 g and 0.051 g.
